Test results reported in article PMC10518255, “A first-in-class pan-lysyl oxidase inhibitor impairs stromal remodeling and enhances gemcitabine response and survival in pancreatic cancer” (Nature Cancer, 2023).
pIC50: −log10 of the molar value. Values joined by “and” are separate entries in the source; they are usually repeats but may differ in a detail not shown here. Equal entries are not always repeated.

What was measured:
Recombinant LOXL-4 = target: T1, Recombinant LOXL-4 (Homo sapiens, UniProt Q96JB6); experiment: Lysyl oxidase enzymatic activity, fluorescence-based assay, IC50; format: biochemical
T1 sequence (Q96JB6 25-756): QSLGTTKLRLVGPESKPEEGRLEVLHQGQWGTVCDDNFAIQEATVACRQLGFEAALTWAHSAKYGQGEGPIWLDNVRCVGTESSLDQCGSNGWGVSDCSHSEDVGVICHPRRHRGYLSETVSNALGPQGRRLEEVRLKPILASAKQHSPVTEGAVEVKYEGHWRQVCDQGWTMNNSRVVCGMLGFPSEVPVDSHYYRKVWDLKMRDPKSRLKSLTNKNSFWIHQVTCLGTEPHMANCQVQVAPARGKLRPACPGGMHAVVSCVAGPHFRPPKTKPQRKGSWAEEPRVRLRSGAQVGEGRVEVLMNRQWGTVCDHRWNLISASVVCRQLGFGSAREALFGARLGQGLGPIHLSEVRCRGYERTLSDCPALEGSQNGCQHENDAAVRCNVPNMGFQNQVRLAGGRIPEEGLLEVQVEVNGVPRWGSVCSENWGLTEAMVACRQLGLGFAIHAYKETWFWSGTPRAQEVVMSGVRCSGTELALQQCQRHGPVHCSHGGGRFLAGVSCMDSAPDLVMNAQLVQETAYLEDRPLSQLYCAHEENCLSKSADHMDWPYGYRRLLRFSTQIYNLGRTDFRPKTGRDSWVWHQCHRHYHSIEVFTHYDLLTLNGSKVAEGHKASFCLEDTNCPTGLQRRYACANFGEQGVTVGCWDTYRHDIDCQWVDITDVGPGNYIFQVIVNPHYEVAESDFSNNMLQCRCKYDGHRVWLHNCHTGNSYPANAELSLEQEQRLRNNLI
Excerpt: Data are presented as mean ± s.d. […] Data presented as mean ± s.d. […] Source data TEXT PRINTED IN THE PICTURE: (b) PXS-5505: Recombinant DAO IC50 (nM): >30,000; Recombinant SSAO/VAP1 IC50 (nM): >30,000; Recombinant MAO-A IC50 (nM): >30,000; Recombinant MAO-B IC50 (nM): >30,000 | (f) PXS-5505: Fibroblast LOX IC50 (nM): 4,930; Recombinant LOXL-1 IC50 (nM): 1,590; Recombinant LOXL-2 IC50 (nM): 570; Recombinant LOXL-3 IC50 (nM): 1,800; Recombinant LOXL-4 IC50 (nM): 190
In characterizing PXS-5505, the half-maximum inhibitory concentration (IC50) values for each of the lysyl oxidase family members were determined by measuring enzymatic activity using a fluorescence-based assay.
Data presented as mean values +/− SD. f. […] Data presented as mean values +/− SD. […] Data presented as mean values +/− SD. […] Data presented as mean values +/− SD. Ordinary one-way ANOVA for multiple comparison test performed. Source data

[1] = test system: standard panel of macromolecular targets; experiment: Eurofins SafetyScreen44 off-target panel (enzyme and radioligand-binding assays); conditions: 30 µM
Excerpt: To increase specificity for the lysyl oxidase family, the design of PXS-5505 (Supplementary Data 1–3) was based upon substrate analog fluoroallylamines. Variants of fluoroallylamines have previously been used in amine oxidase inhibitors, including those targeting LOXL2 and LOXL3 (ref. [31]). […] Importantly, PXS-5505 not only maintains the potent functional inhibition of LOXL2 but linkage to a quinoline moiety improves potency for all other lysyl oxidase family members and is key to the superiority of PXS-5505 (Fig. 2a). PXS-5505 is the free base of the active principle, which is suitably isolated as a dihydrochloride salt.

cytochrome P450 enzymes = experiment: Cytochrome P450 inhibition

With Cl.Cl.NC/C=C(\F)CS(=O)(=O)c1cccc2cccnc12.O [PXS-5505, (Z)-3-fluoro-4-(quinolin-8-ylsulfonyl)but-2-en-1-amine dihydrochloride monohydrate] the pIC50 (Recombinant LOXL-4) was 6.72, the “LOXL4 activity, IC50 determination curve” value (Recombinant LOXL-4; log(Concentration) -4.52288, replicates, 30 µM) was -2.4007 and -2.8906 and -3.2101 and -2.6712 and the “LOXL4 activity, IC50 determination curve” value (Recombinant LOXL-4; log(Concentration) -5, replicates, 10 µM) was -1.4422 and -2.1664 and -2.1983 and -2.2521. For the same compound, the “LOXL4 activity, IC50 determination curve” value (Recombinant LOXL-4; log(Concentration) -5.47712, replicates, 3.333 µM) was 0.2192 and -0.9736 and -1.1972 and -0.2715, the “LOXL4 activity, IC50 determination curve” value (Recombinant LOXL-4; log(Concentration) -5.95424, replicates, 1.111 µM) was 5.544 and 5.363 and 4.947 and the “LOXL4 activity, IC50 determination curve” value (Recombinant LOXL-4; log(Concentration) -6.43136, replicates, 0.3704 µM) was 33.33 and 26.333 and 28.4205. The “LOXL4 activity, IC50 determination curve” value (Recombinant LOXL-4; log(Concentration) -6.90849, replicates, 0.1235 µM) was 72.8948 and 68.0171 and 53.7035 and 49.075, the “LOXL4 activity, IC50 determination curve” value (Recombinant LOXL-4; log(Concentration) -7.38561, replicates, 0.04115 µM) was 94.28 and 92.9061 and 89.562 and 72.7789 and the “LOXL4 activity, IC50 determination curve” value (Recombinant LOXL-4; log(Concentration) -7.86273, replicates, 0.01372 µM) was 99.5304 and 98.9021 and 84.3689. The “LOXL4 activity, IC50 determination curve” value (Recombinant LOXL-4; log(Concentration) -8.33985, replicates, 0.004572 µM) was 103.556 and 102.033 and 92.1549, the “LOXL4 activity, IC50 determination curve” value (Recombinant LOXL-4; log(Concentration) -8.81697, replicates, 0.001524 µM) was 95.8121 and the “LOXL4 activity, IC50 determination curve” value (Recombinant LOXL-4; log(Concentration) -9.29409, replicates, 0.000508 µM) was 96.0112. For the same compound, the activity at 1.111 µM (Recombinant LOXL-4; read-out: LOXL4 activity, IC50 determination curve, log(Concentration) -5.95424, replicates) was 6.34%, the activity at 0.3704 µM (Recombinant LOXL-4; read-out: LOXL4 activity, IC50 determination curve, log(Concentration) -6.43136, replicates) was 39.8% and the activity at 0.01372 µM (Recombinant LOXL-4; read-out: LOXL4 activity, IC50 determination curve, log(Concentration) -7.86273, replicates) was 101%. The activity at 0.004572 µM (Recombinant LOXL-4; read-out: LOXL4 activity, IC50 determination curve, log(Concentration) -8.33985, replicates) was 106%, the activity at 0.001524 µM (Recombinant LOXL-4; read-out: LOXL4 activity, IC50 determination curve, log(Concentration) -8.81697, replicates) was 104% and the activity at 0.000508 µM (Recombinant LOXL-4; read-out: LOXL4 activity, IC50 determination curve, log(Concentration) -9.29409, replicates) was 105%. For the same compound, the “off-target activity against a standard panel of macromolecular targets” value [1] was “does not show any significant off-target activity” and the “inhibition of cytochrome P450 enzymes” value (cytochrome P450 enzymes) was “does not inhibit”.
